Tests used:
[1] = molecular target: T1, Acetylcholinesterase (Homo sapiens, UniProt P22303); experiment: Inhibition of recombinant human AChE assessed as residual activity at 3 uM using acetylthiocholine iodide as substrate preincubated for 1 to 30 mins followed by substrate addition by Ellman's method relative to control; settings: time 1-30 min
[2] = molecular target: T2, Cholinesterase (Homo sapiens, UniProt P06276)
Description: Binding affinity to human recombinant BChE assessed as decarbamoylation rate by measuring half life

[3] = molecular target: T2, Cholinesterase; remark: listed apart in the source
Description: Inhibition of recombinant human BChE using butyrylthiocholine iodide as substrate preincubated for 1 to 30 mins followed by substrate addition by Ellman's method

[4] = molecular target: T1, Acetylcholinesterase; experiment: Inhibition of recombinant human AChE using acetylthiocholine iodide as substrate preincubated for 1 to 30 mins followed by substrate addition by Ellman's method
[5] = molecular target: T1, Acetylcholinesterase; experiment: Inhibition of recombinant human AChE assessed as residual activity at 100 uM using acetylthiocholine iodide as substrate preincubated for 1 to 30 mins followed by substrate addition by Ellman's method relative to control; settings: time 1-30 min
[6] = molecular target: T3, Acetylcholinesterase (Mus musculus, UniProt P21836); experiment: Inhibition of mouse recombinant AChE assessed as reduction in cholinesterase activity using acetylthiocholine iodide as substrate preincubated for 1 to 30 mins followed by substrate addition by Ellman's method
T3 sequence (P21836 whole entry): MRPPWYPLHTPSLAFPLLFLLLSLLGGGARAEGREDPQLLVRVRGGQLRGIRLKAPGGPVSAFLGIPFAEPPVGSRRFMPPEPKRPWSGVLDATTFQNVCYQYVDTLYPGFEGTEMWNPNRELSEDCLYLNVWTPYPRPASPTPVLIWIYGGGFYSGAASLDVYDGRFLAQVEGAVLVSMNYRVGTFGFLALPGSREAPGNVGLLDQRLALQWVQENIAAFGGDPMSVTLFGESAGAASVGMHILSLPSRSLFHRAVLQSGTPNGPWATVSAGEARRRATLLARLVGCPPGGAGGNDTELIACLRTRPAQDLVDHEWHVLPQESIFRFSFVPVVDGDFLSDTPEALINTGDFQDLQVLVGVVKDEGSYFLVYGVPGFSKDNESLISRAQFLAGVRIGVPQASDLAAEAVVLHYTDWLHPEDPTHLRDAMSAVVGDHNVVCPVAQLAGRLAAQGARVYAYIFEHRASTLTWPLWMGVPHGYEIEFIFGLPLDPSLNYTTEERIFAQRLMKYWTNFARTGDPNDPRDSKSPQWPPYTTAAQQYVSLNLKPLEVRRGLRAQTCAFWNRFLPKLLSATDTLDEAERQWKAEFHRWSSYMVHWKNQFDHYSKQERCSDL

[7] = molecular target: Cholinesterases; ACHE & BCHE (Homo sapiens) (UniProt P06276+P22303); experiment: Selectivity ratio of IC50 for recombinant human AChE to IC50 for recombinant human BChE; format: protein assay
Cholinesterases; ACHE & BCHE (Homo sapiens), sequence (P06276 whole entry, looked up): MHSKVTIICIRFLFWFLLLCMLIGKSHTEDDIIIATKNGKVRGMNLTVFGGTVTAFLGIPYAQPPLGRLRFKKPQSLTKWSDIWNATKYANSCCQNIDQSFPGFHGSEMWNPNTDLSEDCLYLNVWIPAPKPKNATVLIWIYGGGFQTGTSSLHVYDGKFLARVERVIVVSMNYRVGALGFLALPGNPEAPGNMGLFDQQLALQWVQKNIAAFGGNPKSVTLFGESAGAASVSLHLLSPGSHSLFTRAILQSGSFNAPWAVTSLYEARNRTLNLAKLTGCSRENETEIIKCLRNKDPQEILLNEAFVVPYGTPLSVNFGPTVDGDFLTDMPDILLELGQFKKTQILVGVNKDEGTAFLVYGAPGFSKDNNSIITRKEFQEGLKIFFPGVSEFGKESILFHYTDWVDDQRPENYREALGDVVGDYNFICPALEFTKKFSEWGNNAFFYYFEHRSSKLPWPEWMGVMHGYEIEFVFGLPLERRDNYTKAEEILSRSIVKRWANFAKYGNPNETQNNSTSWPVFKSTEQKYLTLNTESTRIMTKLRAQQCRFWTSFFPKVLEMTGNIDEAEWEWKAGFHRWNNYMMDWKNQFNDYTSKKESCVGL
Cholinesterases; ACHE & BCHE (Homo sapiens), sequence (P22303 whole entry, looked up): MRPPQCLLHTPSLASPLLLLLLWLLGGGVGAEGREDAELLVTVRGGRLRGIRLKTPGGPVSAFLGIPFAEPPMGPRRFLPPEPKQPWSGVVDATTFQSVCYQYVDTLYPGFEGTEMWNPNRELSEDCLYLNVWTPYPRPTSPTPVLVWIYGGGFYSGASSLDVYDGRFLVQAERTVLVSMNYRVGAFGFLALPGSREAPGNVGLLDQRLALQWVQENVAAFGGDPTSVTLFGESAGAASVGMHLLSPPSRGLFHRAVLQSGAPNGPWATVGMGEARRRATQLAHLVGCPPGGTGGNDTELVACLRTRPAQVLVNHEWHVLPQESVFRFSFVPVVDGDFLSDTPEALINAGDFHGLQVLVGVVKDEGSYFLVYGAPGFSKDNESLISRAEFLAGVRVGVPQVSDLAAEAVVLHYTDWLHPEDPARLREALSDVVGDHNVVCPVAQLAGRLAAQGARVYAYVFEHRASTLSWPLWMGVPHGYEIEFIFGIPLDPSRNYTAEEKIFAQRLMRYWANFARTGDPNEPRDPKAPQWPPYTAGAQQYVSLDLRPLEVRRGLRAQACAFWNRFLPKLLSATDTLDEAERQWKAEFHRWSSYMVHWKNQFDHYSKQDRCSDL

T2 sequence (P06276 whole entry): as the sequence (P06276 whole entry, looked up) above
T1 sequence (P22303 whole entry): as the sequence (P22303 whole entry, looked up) above

SMILES | Activity [1] [%] | IC50 [3] [µM] | further results
CCCCN(CCc1c[nH]c2cc(OC(=O)N(C)C)ccc12)CCC1CCCCCC1 | > 50 | – | T1/2 [2]: 14.8 h
CCCCN(CCc1cn(C(=O)N(C)C)c2ccccc12)CCC1CCCCCC1 | > 50 | 0.00087 | –
CCCCN(CCC1CCCCCC1)Cc1cn(OC(=O)N(C)C)c2ccccc12 | > 50 | 0.133 | IC50 [4]: 0.152 µM
c1ccc2c(CCNCCC3CCCCCC3)c[nH]c2c1 | > 50 | 0.0315 | –
CCCCN(CCC1CCCCCC1)CCC1CCc2ccccc21 (centres undefined) | > 50 | 0.0065 | –
CCCCN(CCCc1cccc2ccccc12)CCC1CCCCCC1 | > 50 | 0.0019 | –
CCCCN(CCc1c[nH]c2ccc(O)cc12)CCC1CCCCCC1 | > 50 | 0.0335 | Activity [5]: 79%
CCCCN(CCC1CCCCCC1)Cc1cc2ccccc2cc1OC(=O)N(C)C | > 50 | 0.0022 | –
c1ccc2c(CCCN(CCC3CCCCCC3)CCC3CCCCC3)c[nH]c2c1 | > 50 | 0.0049 | –
CCCC[N+]([O-])(CCc1c[nH]c2ccccc12)CCC1CCCCCC1 (centres undefined) | > 50 | 0.107 | Activity [5]: 86%
CCCCN(CCOc1cccc2c(OC(=O)N(C)C)cccc12)CCC1CCCCCC1 | > 50 | 0.0058 | IC50 [4]: 0.0479 µM
CCCCN(CCCC1CCNc2ccccc21)CCC1CCCCCC1 (centres undefined) | > 50 | 0.0548 | Activity [5]: 65%
CCCCN(CCC1CCCCCC1)Cc1c[nH]c2cc(Br)ccc12 | > 50 | 0.0036 | –
CCCCN(CCCc1c[nH]c2ccccc12)CCC1CCC(N(C)C)CC1 (stereo in doubt; 33a) [listing 1 of 2 here] | – | 0.205 | –
CCCCN(CCOc1ccc2ccc(OC(=O)N(C)C)cc2c1)CCC1CCCCCC1 | > 50 | 0.0117 | –
CCCCN[C@H](CNCCC1CCCCCC1)Cc1c[nH]c2ccccc12 | > 50 | 0.0101 | IC50 [6]: 12.4 µM
CN(C)C1CCC(CCN(CCCc2c[nH]c3ccccc23)CCC2CCCCCC2)CC1 (stereo in doubt; 32b) [listing 1 of 2 here] | > 50 | – | –
CCCCN(C)[C@@H](Cc1c[nH]c2ccccc12)CN(C)CCC1CCCCCC1 | > 50 | 0.003 | IC50 [6]: 23.4 µM
CN(C)C1CCC(CCN(CCCc2c[nH]c3ccccc23)CCC2CCCCCC2)CC1 (stereo in doubt; 32b) [listing 2 of 2 here] | – | 0.0041 | IC50 [4]: 8.57 µM
CN(CCC1CCCCCC1)Cc1cccc2[nH]ccc12 | > 50 | 0.349 | –
CN1CCN(CCC2CCCCCC2)C[C@@H]1Cc1c[nH]c2ccccc12 | > 50 | 0.0105 | Activity [5]: 39%
CCCCN(CCCc1c[nH]c2ccccc12)CCC1CCCCCC1 | > 50 | 0.0024 | –
CN(CCC1CCN(Cc2ccccc2)CC1)Cc1c[nH]c2ccccc12 | > 50 | 1.71 | IC50 [4]: 33.9 µM
CCCCN(CCCc1ccc2ccccc2c1)CCC1CCCCCC1 | > 50 | 0.0051 | Activity [5]: 56%
CCCC[N+](C)(CCCc1c[nH]c2ccccc12)CCC1CCCCCC1 (centres undefined) | > 50 | 0.0023 | IC50 [4]: 23.2 µM
CCCCN(CCc1c[nH]c2cc(O)ccc12)CCC1CCCCCC1 | > 50 | – | IC50 [4]: 70.6 µM
CCCCN(CCCc1c[nH]c2ccccc12)CCC1CCC(N(C)C)CC1 (stereo in doubt; 33a) [listing 2 of 2 here] | > 50 | – | –

SMILES | Activity [1] [%] | IC50 [3] [µM] | further results
CCCCN(CCCc1c[nH]c2ccccc12)CCC1CCC(N(C)C)CC1 (stereo in doubt; 33b) [listing 1 of 2 here] | > 50 | – | –
CN(CCC1CCCCCC1)Cc1c(-c2nnn[nH]2)[nH]c2ccccc12 | > 50 | 0.929 | –
CN(C)c1ccc(/C=C/CN(CCCc2c[nH]c3ccccc23)CCC2CCCCCC2)cc1 | > 50 | 0.0046 | Activity [5]: 54%
CCCCN(CCCc1cc2ccccc2[nH]1)CCC1CCCCCC1 | > 50 | 0.0047 | Activity [5]: 74%
CCCCN(CCc1c(-c2ccccc2O)[nH]c2ccccc12)CCC1CCCCCC1 | > 50 | 0.0168 | –
CCCCN(CCC1CCCCCC1)Cc1cc2ccccc2cc1O | > 50 | 0.0337 | IC50 [4]: 18.6 µM
CCCCN(CCCc1c[nH]c2ccccc12)CCC1CCN(Cc2ccccc2)CC1 | > 50 | 0.0293 | IC50 [4]: 7.84 µM
CCCCN(CCC1CCCCCC1)Cc1c[nH]c2ncccc12 | > 50 | 0.083 | Activity [5]: 57%
CCCCN(CCC1CCCCCC1)Cc1cc(O)c2ccccc2c1 | > 50 | 0.0047 | –
CCCCN(CCCc1c[nH]c2ccccc12)CCC1CCC(N(C)C)CC1 (stereo in doubt; 33b) [listing 2 of 2 here] | – | 0.214 | –
CCCCN(CCC1CCCCCC1)Cc1cc(OC(=O)N(C)C)c2ccccc2c1 | > 50 | 0.0024 | –
CN(CCC1CCCCCC1)Cc1c[nH]c2ccccc12 | > 50 | 0.0604 | IC50 [4]: 25.2 µM
CCCCN(CCC1CCCCCC1)Cc1c[nH]c2cc(C#N)ccc12 | > 50 | 0.0837 | –
CCCCN(CCc1c(-c2ccccc2OC(=O)N(C)C)[nH]c2ccccc12)CCC1CCCCCC1 | > 50 | 0.0054 | –
CCCCN(CCCc1c[nH]c2ccc(F)cc12)CCC1CCCCCC1 | > 50 | 0.006 | –
CN(CCc1c[nH]c2ccccc12)CCC1CCCCCC1 | > 50 | – | –
CCCCN(CCc1c[nH]c2c(OC(=O)C(C)C)cccc12)CCC1CCCCCC1 | > 50 | – | IC50 [4]: 1.37 µM; T1/2 [2]: 15.2 h
c1ccc2c(c1)CCC2CCN(CCCc1c[nH]c2ccccc12)CCC1CCCCCC1 (centres undefined) | > 50 | 0.0063 | –
CCCCN1CCN(CCCC2CCCCCC2)C[C@@H]1Cc1c[nH]c2ccccc12 | > 50 | 0.005 | Ratio IC50 [7]: > 1000; IC50 [6]: 10.3 µM
CCCCN(CCC1CCCCCC1)Cc1c[nH]c2ccccc12 | > 50 | 0.0133 | –
CCCCN(CCc1c[nH]c2c(O)cccc12)CCC1CCCCCC1 | > 50 | – | Activity [5]: 69%
CCCCN(CCc1c[nH]c2ccccc12)CCC1CCCCCC1 | > 50 | 0.005 | –
CCCCN(CCc1c[nH]c2ccc(OC(=O)N(C)C)cc12)CCC1CCCCCC1 | > 50 | 0.0069 | –
CCCCN(CCC1CCCCCC1)Cc1ccc(OC(=O)N(C)C)c2ccccc12 | > 50 | 0.0019 | IC50 [4]: 0.101 µM
CN(C)C1CCC(CCN(CCCc2c[nH]c3ccccc23)CCC2CCCCCC2)CC1 (stereo in doubt; 32a) [listing 1 of 2 here] | – | 0.0019 | IC50 [4]: 12.6 µM
CCCCN1CN(CCC2CCCCCC2)C[C@@H]1Cc1c[nH]c2ccccc12 | > 50 | 0.0087 | Ratio IC50 [7]: > 1000; IC50 [6]: 11 µM
CN(C)C1CCC(CCN(CCCc2c[nH]c3ccccc23)CCC2CCCCCC2)CC1 (stereo in doubt; 32a) [listing 2 of 2 here] | > 50 | – | –

From ChEMBL document CHEMBL5154805, “From tryptophan-based amides to tertiary amines: Optimization of a butyrylcholinesterase inhibitor series” (Eur J Med Chem, 2022)
